# Assay results taken from patent US20240116985A1, “STAPLED PEPTIDES AND METHODS THEREOF” (priority 2020, published 2024).
# Test: CHI Log D procedure
# Type: physicochemical
# Conditions: pH 7.4
row,Structure (SMILES),CHI Log D
1,"CC(=O)NC(C)(C)C(=O)N[C@@H](CC(=O)O)C(=O)N[C@@H](C)C(=O)N[C@]1(C)CCCCCCC=CCOC(=O)N2CC[C@@](C(=O)N[C@@H](Cc3ccccc3)C(=O)N[C@@H](Cc3c[nH]c4ccccc34)C(=O)N[C@@H](CCC(N)=O)C(N)=O)(C2)NC(=O)[C@H](C(C)C)NC(=O)[C@H](Cc2ccccc2)NC(=O)[C@H](C)NC(=O)[C@H](C)NC(=O)[C@H](CCC(=O)O)NC(=O)[C@H](CC(=O)O)NC1=O [I-157, Ac-Aib-Asp-Ala-R8-Asp-Glu-Ala-Ala-Phe-Val-PyrS-Phe-Trp-Gln-NH2]",1.202
2,"CC(=O)N[C@@H](Cc1ccccc1)C(=O)N[C@@H](CC(=O)O)C(=O)N[C@@H](C)C(=O)N[C@]1(C)CCCCCCC=CCOC(=O)N2CC[C@@](C(=O)N[C@@H](Cc3ccccc3)C(=O)N[C@@H](Cc3c[nH]c4ccccc34)C(=O)N[C@@H](CCC(N)=O)C(N)=O)(C2)NC(=O)[C@H](C(C)C)NC(=O)[C@H](CC2CCCCC2)NC(=O)[C@H](C)NC(=O)[C@H](C)NC(=O)[C@H](CC(=O)O)NC(=O)[C@H](CC(=O)O)NC1=O (single isomer, unassigned) [I-75, Ac-Phe-Asp-Ala-R8-Asp-Asp-Ala-Ala-Cha-Val-PyrS-Phe-Trp-Gln-NH2]",1.376
3,"CC(=O)N[C@@H](Cc1ccccc1)C(=O)N[C@@H](CC(=O)O)C(=O)N[C@@H](C)C(=O)N[C@]1(C)CCCCCCC=CCOC(=O)N2CC[C@@](C(=O)N[C@@H](Cc3ccccc3)C(=O)N[C@@H](Cc3c[nH]c4ccccc34)C(=O)N[C@@H](CCC(N)=O)C(N)=O)(C2)NC(=O)[C@H](C(C)C)NC(=O)[C@H](Cc2ccccc2)NC(=O)[C@H](C)NC(=O)[C@H](C)NC(=O)[C@H](CCC(C)C)NC(=O)[C@H](CC(=O)O)NC1=O (single isomer, unassigned) [I-18, Ac-Phe-Asp-Ala-R8-Asp-hLeu-Ala-Ala-Phe-Val-PyrS-Phe-Trp-Gln-NH2]",2.108
4,"CC(=O)N1CCC[C@]12CC=CCCCC1(CCCC=CCCCCCC[C@@](C)(C(=O)N[C@@H](Cc3ccc(F)c(F)c3)C(=O)N[C@@H](Cc3c[nH]c4ccccc34)C(=O)N[C@@H](CCC(N)=O)C(N)=O)NC(=O)[C@H](C(C)C)NC(=O)[C@H](Cc3ccccc3)NC(=O)[C@H](C)NC(=O)[C@H](C)NC(=O)[C@H](CC(=O)O)NC(=O)[C@H](CC(=O)O)NC1=O)NC(=O)[C@H](C)NC(=O)[C@H](CC(=O)O)NC2=O (stereo partly drawn) [I-262, Ac-PL3-Asp-Ala-B5-Asp-Asp-Ala-Ala-Phe-Val-S8-34FF-Trp-Gln-NH2]",2.106
5,"CC(=O)N[C@@H](Cc1ccccc1)C(=O)N[C@@H](CC(=O)O)C(=O)N[C@@H](C)C(=O)NC12CN(C1)C(=O)OCC=CCCCCC[C@@](C)(C(=O)N[C@@H](Cc1ccccc1)C(=O)N[C@@H](Cc1c[nH]c3ccccc13)C(=O)N[C@@H](CCC(N)=O)C(N)=O)NC(=O)[C@H](C(C)C)NC(=O)[C@H](Cc1ccccc1)NC(=O)[C@H](C)NC(=O)[C@H](C)NC(=O)[C@H](CC(=O)O)NC(=O)[C@H](CC(=O)O)NC2=O [I-33, Ac-Phe-Asp-Ala-Az-Asp-Asp-Ala-Ala-Phe-Val-S7-Phe-Trp-Gln-NH2]",1.228
6,"CC(=O)N1CCC[C@]12CC=CCCCC1(CCCC=CCCCCCC[C@@](C)(C(=O)N[C@@H](Cc3ccccc3)C(=O)N[C@@H](Cc3c[nH]c4ccccc34)C(=O)N[C@@H](CCC(N)=O)C(N)=O)NC(=O)[C@H](C(C)C)NC(=O)[C@H](Cc3ccccc3)NC(=O)[C@H](C)NC(=O)[C@H](C)NC(=O)[C@@](C)(CC(C)C)NC(=O)[C@H](CC(=O)O)NC1=O)NC(=O)[C@H](C)NC(=O)[C@H](CC(=O)O)NC2=O (single isomer, unassigned) [I-216, Ac-PL3-Asp-Ala-B5-Asp-DaMeL-Ala-Ala-Phe-Val-S8-Phe-Trp-Gln-NH2]",2.867
7,"CC(=O)N[C@@H](Cc1ccccc1)C(=O)N[C@@H](CC(=O)O)C(=O)N[C@@H](C)C(=O)N[C@]1(C)CCCCCCC=CCOC(=O)N2CC[C@@](C(=O)N[C@@H](Cc3ccccc3)C(=O)N[C@@H](Cc3c[nH]c4ccccc34)C(=O)N[C@@H](CCC(N)=O)C(N)=O)(C2)NC(=O)[C@H](CO)NC(=O)[C@H](Cc2ccccc2)NC(=O)[C@H](C)NC(=O)[C@H](C)NC(=O)[C@H](CC(=O)O)NC(=O)[C@H](CC(=O)O)NC1=O [I-164, Ac-Phe-Asp-Ala-R8-Asp-Asp-Ala-Ala-Phe-Ser-PyrS-Phe-Trp-Gln-NH2]",1.359

# Same assay, conditions: pH 7.4, CHI Log D
row,Structure (SMILES),chromatographic logD
1,"CC(=O)N[C@@H](Cc1ccccc1)C(=O)N[C@@H](CC(=O)O)C(=O)N[C@@H](C)C(=O)N[C@]1(C)CCCCCCC=CCOC(=O)N2CC[C@@](C(=O)N[C@@H](Cc3ccccc3)C(=O)N[C@@H](Cc3c[nH]c4ccccc34)C(=O)N[C@@H](CCC(N)=O)C(N)=O)(C2)NC(=O)[C@H](C(C)C)NC(=O)[C@H](CCc2ccccc2)NC(=O)[C@H](C)NC(=O)[C@H](C)NC(=O)[C@H](CC(=O)O)NC(=O)[C@H](CC(=O)O)NC1=O (single isomer, unassigned) [I-117, Ac-Phe-Asp-Ala-R8-Asp-Asp-Ala-Ala-hPhe-Val-PyrS-Phe-Trp-Gln-NH2]",1.33
2,"CC(=O)N[C@@H](Cc1ccccc1)C(=O)N[C@@H](CC(=O)O)C(=O)N[C@@H](C)C(=O)N[C@]1(C)CCCCCCC=CCOC(=O)N2CC[C@@](C(=O)N[C@@H](Cc3ccccc3)C(=O)N[C@@H](Cc3c[nH]c4ccccc34)C(=O)N[C@@H](CCC(N)=O)C(N)=O)(C2)NC(=O)[C@H](C(C)C)NC(=O)[C@H](Cc2ccccc2)NC(=O)[C@H](C)NC(=O)[C@H](C)NC(=O)[C@H](Cc2ccc(C(=O)O)cc2)NC(=O)[C@H](CC(=O)O)NC1=O (single isomer, unassigned) [I-7, Ac-Phe-Asp-Ala-R8-Asp-4COOHF-Ala-Ala-Phe-Val-PyrS-Phe-Trp-Gln-NH2]",1.32
3,"CC(=O)N[C@@H](Cc1ccccc1)C(=O)N[C@@H](CC(=O)O)C(=O)N[C@@H](C)C(=O)N[C@]1(C)CCCCCCC=CCOC(=O)N2CC[C@@](C(=O)N[C@@H](Cc3ccccc3)C(=O)N[C@@H](Cc3c[nH]c4ccccc34)C(=O)N[C@@H](CCC(N)=O)C(N)=O)(C2)NC(=O)[C@H](C(C)C)NC(=O)[C@H](Cc2ccccc2)NC(=O)[C@H](C)NC(=O)[C@H](C)NC(=O)[C@H](Cc2ccc(-c3ccccc3)cc2)NC(=O)[C@H](CC(=O)O)NC1=O (single isomer, unassigned) [I-11, Ac-Phe-Asp-Ala-R8-Asp-Bip-Ala-Ala-Phe-Val-PyrS-Phe-Trp-Gln-NH2]",2.27
4,"CC(=O)N[C@@H](Cc1ccccc1)C(=O)N[C@@H](CC(=O)O)C(=O)N[C@@H](C)C(=O)N[C@]1(C)CCCCCCC=CCOC(=O)N2CC[C@@](C(=O)N[C@@H](Cc3ccncc3)C(=O)N[C@@H](Cc3c[nH]c4ccccc34)C(=O)N[C@@H](CCC(N)=O)C(N)=O)(C2)NC(=O)[C@H](C(C)C)NC(=O)[C@H](Cc2ccccc2)NC(=O)[C@H](C)NC(=O)[C@H](C)NC(=O)[C@H](CC(=O)O)NC(=O)[C@H](CC(=O)O)NC1=O (single isomer, unassigned) [I-84, Ac-Phe-Asp-Ala-R8-Asp-Asp-Ala-Ala-Phe-Val-PyrS-4PyrA-Trp-Gln-NH2]",0.985
5,"CC(=O)N1CCC[C@]12CC=CCCCC1(CCCC=CCCCCCC[C@@](C)(C(=O)N[C@@H](Cc3ccccc3)C(=O)N[C@@H](Cc3c[nH]c4ccccc34)C(=O)N[C@@H](CCC(N)=O)C(N)=O)NC(=O)[C@H](C(C)C)NC(=O)[C@H](Cc3ccccc3)NC(=O)[C@H](C)NC(=O)[C@H](C)NC(=O)[C@H](Cc3ccc(F)cc3)NC(=O)[C@H](CC(=O)O)NC1=O)NC(=O)[C@H](C)NC(=O)[C@H](CC(=O)O)NC2=O (stereo partly drawn) [I-258, Ac-PL3-Asp-Ala-B5-Asp-4FF-Ala-Ala-Phe-Val-S8-Phe-Trp-Gln-NH2]",2.89
6,"CC(=O)N[C@@H](Cc1ccccc1)C(=O)N[C@@H](CC(=O)O)C(=O)N[C@@H](C)C(=O)N[C@]1(C)CCCN(C)C(=O)OCC=CCCC[C@@](C)(C(=O)N[C@@H](Cc2ccccc2)C(=O)N[C@@H](Cc2c[nH]c3ccccc23)C(=O)N[C@@H](CCC(N)=O)C(N)=O)NC(=O)[C@H](C(C)C)NC(=O)[C@H](Cc2ccccc2)NC(=O)[C@H](C)NC(=O)[C@H](C)NC(=O)[C@H](CC(=O)O)NC(=O)[C@H](CC(=O)O)NC1=O [I-27, Ac-Phe-Asp-Ala-ReN-Asp-Asp-Ala-Ala-Phe-Val-S5-Phe-Trp-Gln-NH2]",1.15
7,"CC(=O)N[C@@H](Cc1ccccc1)C(=O)N[C@@H](CC(=O)O)C(=O)N[C@@H](C)C(=O)N[C@]1(C)CCCCCCC=CCOC(=O)N2CC[C@@](C(=O)N[C@@H](Cc3ccccc3)C(=O)N[C@@H](Cc3c[nH]c4ccccc34)C(=O)N[C@@H](CCC(N)=O)C(N)=O)(C2)NC(=O)[C@H](C(C)C)NC(=O)[C@H](Cc2ccccc2)NC(=O)[C@H](C)NC(=O)[C@H](C)NC(=O)[C@H](CCC(C)C)NC(=O)[C@H](CC(=O)O)NC1=O (single isomer, unassigned) [I-17, Ac-Phe-Asp-Ala-R8-Asp-hLeu-Ala-Ala-Phe-Val-PyrS-Phe-Trp-Gln-NH2]",2.1
8,"CC(=O)N[C@@H](Cc1ccccc1)C(=O)N[C@@H](CC(=O)O)C(=O)N[C@@H](C)C(=O)N[C@]1(C)CCCCCCC=CCOC(=O)N2CC[C@@](C(=O)N[C@@H](Cc3ccccc3)C(=O)N[C@@H](Cc3c[nH]c4ccccc34)C(=O)N[C@@H](CCC(N)=O)C(N)=O)(C2)NC(=O)[C@H](C(C)C)NC(=O)[C@H](Cc2ccccc2)NC(=O)[C@H](C)NC(=O)[C@H](C)NC(=O)[C@H](Cc2cccnc2)NC(=O)[C@H](CC(=O)O)NC1=O (single isomer, unassigned) [I-9, Ac-Phe-Asp-Ala-R8-Asp-3PyrA-Ala-Ala-Phe-Val-PyrS-Phe-Trp-Gln-NH2]",1.65
9,"CC(=O)N1CCC[C@]12CC=CCCCC1(CCCC=CCCCCCC[C@@](C)(C(=O)N[C@@H](Cc3ccccc3)C(=O)N[C@@H](Cc3c[nH]c4ccccc34)C(=O)N[C@@H](CCC(N)=O)C(N)=O)NC(=O)[C@H](C(C)C)NC(=O)[C@H](Cc3ccccc3)NC(=O)[C@H](C)NC(=O)[C@H](C)NC(=O)[C@H](CCC(=O)O)NC(=O)[C@H](Cc3ccncc3)NC1=O)NC(=O)[C@H](C)NC(=O)[C@H](CC(=O)O)NC2=O (stereo partly drawn) [I-214, Ac-PL3-Asp-Ala-B5-4pyrA-Glu-Ala-Ala-Phe-Val-S8-Phe-Trp-Gln-NH2]",2.7
